In ChEMBL document CHEMBL1201862, “PubChem BioAssay data set” (2004):
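Each compound was tested at five concentrations against cells in 96-well plates for 48 hours. Abbreviation: GI50, concentration required for 50% inhibition of growth.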 Activity calls are given as the source filed them. Cut-off read from the data, not from the text of the source: active = GI50 up to about 1.1 µM and inactive = higher.

What was measured:
Assay in all cases: DTP human tumour cell line panel, 48 h
786-0 = system: 786-0
A498 = system: A498
A549 = system: A549
ACHN = system: ACHN
BT-549 = system: BT-549
CAKI-1 = system: CAKI-1
CCRF-CEM = system: CCRF-CEM
COLO 205 = system: COLO 205
DU-145 = system: DU-145
EKVX = system: EKVX
HCC 2998 = system: HCC 2998
HCT-116 = system: HCT-116
HCT-15 = system: HCT-15
HL-60 = system: HL-60
HOP-62 = system: HOP-62
HOP-92 = system: HOP-92
HT-29 = system: HT-29
Hs-578T = system: Hs-578T
IGROV-1 = system: IGROV-1
K562 = system: K562
KM12 = system: KM12
LOX IMVI = system: LOX IMVI
M14 = system: M14
MCF7 = system: MCF7
MDA-MB-231 = system: MDA-MB-231
MDA-MB-435 = system: MDA-MB-435
MDA-N = system: MDA-N
MOLT-4 = system: MOLT-4
NCI-H460 = system: NCI-H460
NCI/ADR-RES = system: NCI/ADR-RES
OVCAR-3 = system: OVCAR-3
OVCAR-4 = system: OVCAR-4
OVCAR-5 = system: OVCAR-5
OVCAR-8 = system: OVCAR-8
PC-3 = system: PC-3
RPMI-8226 = system: RPMI-8226
RXF 393 = system: RXF 393
SF-268 = system: SF-268
SF-295 = system: SF-295
SF-539 = system: SF-539
SK-MEL-28 = system: SK-MEL-28
SK-MEL-2 = system: SK-MEL-2
SK-MEL-5 = system: SK-MEL-5
SK-OV-3 = system: SK-OV-3
SN12C = system: SN12C
SNB-19 = system: SNB-19
SR = system: SR
SW-620 = system: SW-620
T47D = system: T47D
TK-10 = system: TK-10
U-251 = system: U-251
UACC-257 = system: UACC-257
UACC-62 = system: UACC-62
UO-31 = system: UO-31
Malme-3M = system: Malme-3M
NCI-H226 = system: NCI-H226
NCI-H23 = system: NCI-H23
NCI-H522 = system: NCI-H522
SNB-75 = system: SNB-75

SMILES: O=C1/C(=C/c2cccc([N+](=O)[O-])c2)N=C(c2ccccc2)N1c1nc2c(Cl)cc(Cl)cc2s1
- GI50 (786-0): 31.4 µM (inactive)
- GI50 (A498): 18.7 µM (inactive)
- GI50 (A549): 21.1 µM (inactive)
- GI50 (ACHN): 27.7 µM (inactive)
- GI50 (BT-549): 30.5 µM (inactive)
- GI50 (CAKI-1): 40.7 µM (inactive)
- GI50 (CCRF-CEM): 10.4 µM (inactive)
- GI50 (COLO 205): 31.8 µM (inactive)
- GI50 (DU-145): 27 µM (inactive)
- GI50 (EKVX): 15.5 µM (inactive)
- GI50 (HCC 2998): 27.5 µM (inactive)
- GI50 (HCT-116): 19.5 µM (inactive)
- GI50 (HCT-15): 29.3 µM
- GI50 (HL-60): 21.7 µM (inactive)
- GI50 (HOP-62): 19.7 µM (inactive)
- GI50 (HOP-92): 24.6 µM (inactive)
- GI50 (HT-29): 19.1 µM (inactive)
- GI50 (Hs-578T): 35.8 µM (inactive)
- GI50 (IGROV-1): 23.2 µM (inactive)
- GI50 (K562): 31.1 µM (inactive)
- GI50 (KM12): 19.9 µM (inactive)
- GI50 (LOX IMVI): 16.4 µM (inactive)
- GI50 (M14): 21.8 µM (inactive)
- GI50 (MCF7): 23.9 µM (inactive)
- GI50 (MDA-MB-231): 29.4 µM (inactive)
- GI50 (MDA-MB-435): 20.8 µM (inactive)
- GI50 (MDA-N): 18.4 µM (inactive)
- GI50 (MOLT-4): 11.5 µM (inactive)
- GI50 (NCI-H460): 27.5 µM (inactive)
- GI50 (NCI/ADR-RES): 28.4 µM (inactive)
- GI50 (OVCAR-3): 17.1 µM (inactive)
- GI50 (OVCAR-4): 24 µM (inactive)
- GI50 (OVCAR-5): 26.7 µM (inactive)
- GI50 (OVCAR-8): 22 µM (inactive)
- GI50 (PC-3): 24 µM (inactive)
- GI50 (RPMI-8226): 31.2 µM (inactive)
- GI50 (RXF 393): 27.9 µM (inactive)
- GI50 (SF-268): 42.6 µM (inactive)
- GI50 (SF-295): 33.6 µM (inactive)
- GI50 (SF-539): 22.8 µM (inactive)
- GI50 (SK-MEL-28): 40.7 µM (inactive)
- GI50 (SK-MEL-2): 21.4 µM (inactive)
- GI50 (SK-MEL-5): 16.9 µM (inactive)
- GI50 (SK-OV-3): 31.2 µM (inactive)
- GI50 (SN12C): 22.4 µM (inactive)
- GI50 (SNB-19): 23.1 µM (inactive)
- GI50 (SR): 16.8 µM (inactive)
- GI50 (SW-620): 25.5 µM (inactive)
- GI50 (T47D): 24.9 µM (inactive)
- GI50 (TK-10): 45.2 µM (inactive)
- GI50 (U-251): 17.8 µM (inactive)
- GI50 (UACC-257): 30.1 µM (inactive)
- GI50 (UACC-62): 29.2 µM (inactive)
- GI50 (UO-31): 21.8 µM (inactive)

SMILES: CC(C)(C)OCC1NC(=O)[C@@H]2Cc3c([nH]c4ccccc34)C(C3CCCCC3)N2C1=O (stereo partly specified)
- GI50 (786-0): 22.5 µM (inactive)
- GI50 (A498): 32.2 µM (inactive)
- GI50 (A549): 33.7 µM (inactive)
- GI50 (ACHN): 27 µM (inactive)
- GI50 (BT-549): 20.9 µM (inactive)
- GI50 (CAKI-1): 17.7 µM (inactive)
- GI50 (COLO 205): 20.7 µM (inactive)
- GI50 (DU-145): 34.8 µM (inactive)
- GI50 (EKVX): 27.2 µM (inactive)
- GI50 (HCT-116): 15.3 µM (inactive)
- GI50 (HCT-15): 24 µM
- GI50 (HL-60): 23 µM (inactive)
- GI50 (HOP-62): 16.1 µM (inactive)
- GI50 (HOP-92): 22.1 µM (inactive)
- GI50 (HT-29): 18 µM (inactive)
- GI50 (Hs-578T): 20.8 µM (inactive)
- GI50 (IGROV-1): 23.2 µM (inactive)
- GI50 (K562): 27.3 µM (inactive)
- GI50 (KM12): 17.8 µM (inactive)
- GI50 (LOX IMVI): 16.9 µM (inactive)
- GI50 (M14): 19.3 µM (inactive)
- GI50 (MCF7): 31.6 µM (inactive)
- GI50 (MDA-MB-231): 17.4 µM (inactive)
- GI50 (MDA-MB-435): 16 µM (inactive)
- GI50 (MDA-N): 16.7 µM (inactive)
- GI50 (MOLT-4): 16.5 µM (inactive)
- GI50 (Malme-3M): 21.1 µM (inactive)
- GI50 (NCI-H226): 22 µM (inactive)
- GI50 (NCI-H23): 21.8 µM (inactive)
- GI50 (NCI-H522): 16.5 µM (inactive)
- GI50 (NCI/ADR-RES): 21.1 µM (inactive)
- GI50 (OVCAR-3): 11.6 µM (inactive)
- GI50 (OVCAR-4): 23.9 µM (inactive)
- GI50 (OVCAR-5): 24.2 µM (inactive)
- GI50 (OVCAR-8): 29.9 µM (inactive)
- GI50 (PC-3): 18.8 µM (inactive)
- GI50 (RPMI-8226): 19.8 µM (inactive)
- GI50 (RXF 393): 15.6 µM (inactive)
- GI50 (SF-268): 28.8 µM (inactive)
- GI50 (SF-295): 18.2 µM (inactive)
- GI50 (SK-MEL-28): 22.6 µM (inactive)
- GI50 (SK-MEL-2): 20.7 µM (inactive)
- GI50 (SK-MEL-5): 15.2 µM (inactive)
- GI50 (SK-OV-3): 51.4 µM (inactive)
- GI50 (SN12C): 19.6 µM (inactive)
- GI50 (SNB-19): 37.3 µM (inactive)
- GI50 (SR): 16.2 µM (inactive)
- GI50 (SW-620): 25.3 µM (inactive)
- GI50 (T47D): 20.6 µM (inactive)
- GI50 (TK-10): 24.3 µM (inactive)
- GI50 (U-251): 20.4 µM (inactive)
- GI50 (UACC-257): 18.4 µM (inactive)
- GI50 (UACC-62): 14.9 µM (inactive)
- GI50 (UO-31): 32.9 µM (inactive)

SMILES: O=C(NC(=S)Nc1ccc(Br)cc1)c1ccc2c(c1)Sc1ccccc1O2
- GI50 (786-0): 51.5 µM (inactive)
- GI50 (A498): 27.4 µM (inactive)
- GI50 (A549): > 100 µM (inactive)
- GI50 (ACHN): 60.1 µM (inactive)
- GI50 (BT-549): > 100 µM (inactive)
- GI50 (CCRF-CEM): > 100 µM (inactive)
- GI50 (COLO 205): > 100 µM (inactive)
- GI50 (DU-145): > 100 µM (inactive)
- GI50 (HCT-116): > 100 µM (inactive)
- GI50 (HCT-15): > 100 µM
- GI50 (HL-60): > 100 µM (inactive)
- GI50 (HOP-62): 79.8 µM (inactive)
- GI50 (HOP-92): 22.5 µM (inactive)
- GI50 (HT-29): > 100 µM (inactive)
- GI50 (Hs-578T): 45.7 µM (inactive)
- GI50 (IGROV-1): 49.3 µM (inactive)
- GI50 (K562): > 100 µM (inactive)
- GI50 (KM12): > 100 µM (inactive)
- GI50 (LOX IMVI): > 100 µM (inactive)
- GI50 (M14): > 100 µM (inactive)
- GI50 (MCF7): > 100 µM (inactive)
- GI50 (MDA-MB-231): 58.6 µM (inactive)
- GI50 (MDA-MB-435): > 100 µM (inactive)
- GI50 (MDA-N): > 100 µM (inactive)
- GI50 (MOLT-4): > 100 µM (inactive)
- GI50 (Malme-3M): > 100 µM (inactive)
- GI50 (NCI-H226): > 100 µM (inactive)
- GI50 (NCI-H23): > 100 µM (inactive)
- GI50 (NCI-H460): > 100 µM (inactive)
- GI50 (NCI-H522): > 100 µM (inactive)
- GI50 (NCI/ADR-RES): > 100 µM (inactive)
- GI50 (OVCAR-3): > 100 µM (inactive)
- GI50 (OVCAR-5): > 100 µM (inactive)
- GI50 (OVCAR-8): 50.1 µM (inactive)
- GI50 (PC-3): > 100 µM (inactive)
- GI50 (SF-268): 48.3 µM (inactive)
- GI50 (SF-295): 54.5 µM (inactive)
- GI50 (SF-539): > 100 µM (inactive)
- GI50 (SK-MEL-28): > 100 µM (inactive)
- GI50 (SK-MEL-2): > 100 µM (inactive)
- GI50 (SK-MEL-5): > 100 µM (inactive)
- GI50 (SK-OV-3): 40.2 µM (inactive)
- GI50 (SN12C): 95.7 µM (inactive)
- GI50 (SNB-19): 39.3 µM (inactive)
- GI50 (SNB-75): 3.04 µM (inactive)
- GI50 (SR): 36.6 µM (inactive)
- GI50 (SW-620): > 100 µM (inactive)
- GI50 (T47D): 63.7 µM (inactive)
- GI50 (TK-10): 29.4 µM (inactive)
- GI50 (U-251): 37 µM (inactive)
- GI50 (UACC-257): > 100 µM (inactive)
- GI50 (UACC-62): 68.2 µM (inactive)
- GI50 (UO-31): 31.1 µM (inactive)
